# Measured values taken from patent US7557099B2, “Pyrrolobenzodiazepines as key intermediates in the synthesis of dimeric cytotoxic pyrrolobenzodiazepines” (Spirogen Limited, priority 2004, dated 2009).
# Where two headings read alike, the source gives them in different places.
# How the values were obtained:
# [1] = system: approximately 60 human tumour cell lines; assay: NCI 60 cell screen, SRB assay; format: cell-based; details: 48 hour continuous exposure
# Protocol: The National Cancer Institute (NCI), Bethesda, Md., USA has available an in vitro cytotoxicity screen which consists of approximately 60 human tumour cell lines against which compounds are tested at a minimum of five concentrations each differing 10-fold. A 48 hour continuous exposure protocol is used, where cell viability or growth is estimated with an SRB protein assay.
# The test compounds were evaluated against approximately 60 human tumour cell lines. The NCI screening procedures were described in detail by Monks and co-workers (Monks, A et al., Journal of the National Cancer Institute, 1991, 83, 757). Briefly, cell suspensions were diluted according to the particular cell type and the expected target cell density (5000-40,000 cells per well based on cell growth characteristics), and added by pipette (100 μL) into 96-well microtitre plates. The cells were allowed a preincubation period of 24 hours at 37° C. for stabilisation. Dilutions at twice the intended test concentration were added at time zero in 100 μL aliquots to the wells. The test compounds were evaluated at five 10-fold dilutions (10^−4, 10^−5, 10^−6, 10^−7 and 10^−[…]). The test compounds were incubated for 48 hours in 5% CO2 atmosphere and 100% humidity. The cells were then assayed using the sulphorhodamine B assay. A plate reader was used to read the optical densities and a microcomputer processed the readings into GI50 values (in Moles), which is the dosage required to limit cell growth to 50%.
# [2] = system: K562 human chronic myeloid leukaemia cells; assay: In vitro cytotoxicity, K562 cells, MTT assay; format: cell-based
# Protocol: K562 human chronic myeloid leukaemia cells were maintained in RPM1 1640 medium supplemented with 10% fetal calf serum and 2 mM glutamine at 37° C. in a humidified atmosphere containing 5% CO2 and were incubated with a specified dose of drug for 1 hour or 96 hours at 37° C. in the dark. The incubation was terminated by centrifugation (5 min, 300 g) and the cells were washed once with drug-free medium. Following the appropriate drug treatment, the cells were transferred to 96-well microtiter plates (10^4 cells per well, 8 wells per sample). Plates were then kept in the dark at 37° C. in a humidified atmosphere containing 5% CO2. The assay is based on the ability of viable cells to reduce a yellow soluble tetrazolium salt, 3-(4,5-dimethylthiazol-2-yl)-2,5-diphenyl-2H-tetrazolium bromide (MTT, Aldrich-Sigma), to an insoluble purple formazan precipitate. Following incubation of the plates for 4 days (to allow control cells to increase in number by approximately 10 fold), 20 μL of MTT solution (5 mg/mL in phosphate-buffered saline) was added to each well and the plates further incubated for 5 hours. The plates were then centrifuged for 5 minutes at 300 g and the bulk of the medium pipetted from the cell pellet leaving 10-20 μL per well. DMSO (200 μL) was added to each well and the samples agitated to ensure complete mixing. The optical density was then read at a wavelength of 550 nm on a Titertek Multiscan ELISA plate reader, and a dose-response curve was constructed. For each curve, an IC50 value was read as the dose required to reduce the final optical density to 50% of the control value.
# [3] = system: linear pBR322 DNA; assay: DNA cross-linking, electrophoretic assay (XL50); format: biochemical; details: concentration giving 50% cross-linked plasmid DNA; 2 hours, 37° C., pH 7.2
# Protocol: The extent of DNA cross-linking induced by each PBD dimer was determined using the electrophoretic assay method of Hartley, et al. (Hartley, J. A., Berardini, M. D., and Souhami, R. L. (1991) Anal. Biochem. 193, 131-134) based on the principle that, following complete denaturation of linear pBR322 DNA (˜4,300 bp) to the single-stranded (SS) form, an interstrand cross-link results in renaturation to double-stranded (DS) in a neutral gel.
# Closed-circular DNA was linearized with HindIII, then dephosphorylated and finally 5′-singly end-labelled using [γ^32P]-ATP and polynucleotide kinase. Reactions containing 30-40 ng of DNA and the test compound were carried out in aqueous TEOA (25 mM triethanolamine, 1 mM EDTA, pH 7.2) buffer at 37° C. in a final volume of 50 μl for 2 hours. Reactions were terminated by addition of an equal volume of stop solution (0.6 M NaOAc, 20 mM EDTA, 100 μg/ml tRNA) followed by precipitation with ethanol. Following centrifugation, the supernatant was discarded and the pellet dried by lyophilization. Samples were re-suspended in 10 μl of strand separation buffer (30% DMSO, 1 mM EDTA, 0.04% bromophenol blue and 0.04% xylene cylanol) and denatured by heating to 90° C. for 2.5 min, followed by immersion in an ice/water bath. Control non-denatured samples were re-suspended in 10 μl of non-denaturing buffer solution (0.6% sucrose, 0.04% bromophenol blue in aqueous TAE buffer [40 mM Tris, 20 mM acetic acid, 2 mM EDTA, pH 8.1]) and loaded directly onto the gel for comparison.
# Electrophoresis was carried out for 14-16 h at 40 V using a 0.8% submerged agarose gel (20×25×0.5 cm) in TAE buffer. Gels were dried under vacuum for 2 hour at 80° C. onto one layer each of Whatman 3MM and DE8I filter papers using a BioRad 583 gel dryer. Autoradiographs were obtained after exposure of Hyperfilm-MP film (Amersham plc, U.K.) to the dried gel for either 4 hour with a screen (or over night, without a screen, to obtain a sharper image). Film bands were quantitated using a BioRad GS-670 imaging laser densitometer. Percentage cross-linking was calculated by measuring the total DNA in each lane (summed density for the double-stranded [DS] and single-stranded [SS] bands) relative to the amount of cross-linked DNA (density of DS band alone). A dose-response curve was derived by plotting drug concentration against the determined percentage level of cross-linked DNA which was then analysed to determine the concentration of test compound that results in 50% cross-linked plasmid DNA (XL50).
# [4] = Homo sapiens, 1 hr exposure, read-out: IC50 1 hr exposure
# [5] = Homo sapiens, 96 hr exposure, sub-table of 16e-j, read-out: IC50 96 hr exposure
# [6] = Homo sapiens, sub-table of 29a-c
# [7] = Homo sapiens, 96 hr exposure, sub-table of 29a-c, read-out: IC50 96 hr exposure
Compound,EC50 [3] [nM],GI50 ([1]; Homo sapiens) [nM],"IC50 [2, 4] [nM]",also measured
"COc1cc2c(cc1OCCCCCOc1cc3c(cc1OC)N=C[C@@H]1CCCN1C3=O)C(=O)N1CCC[C@H]1C=N2 [Compound 9c, 1,11-[(Pentane-1,5-diyl)dioxy]bis[(11aS)-8-methoxy-1,2,3,11a-tetrahydro-5H-pyrrolo[2,1-c][1,4]benzodiazepine-5-one]]",–,–,–,"GI50 [1]: 10200 nM; IC50 ([2]; 1 hr exposure, read-out: IC50 1 hr exposure): > 30000 nM"
"COc1ccc2c(c1)C(=O)N1CCC(OCCCCCOC3CCN4C(=O)c5cc(OC)ccc5N=C[C@@H]34)[C@@H]1C=N2 (stereo partly drawn) [Compound 16c, 1,1′-[(Pentane-1,5-diyl)dioxy]bis[(11aS)-7-methoxy-1,2,3,11a-tetrahydro-5H-pyrrolo[2,1-c][1,4]benzodiazepine-5-one]]",70,15,500,–
"COc1ccc2c(c1)N=C[C@H]1C(OCCCOC3CCN4C(=O)c5ccc(OC)cc5N=C[C@@H]34)CCN1C2=O (stereo partly drawn) [Compound 9a, 1,1′-[(Propane-1,3-diyl)dioxy]bis[(11aS)-8-methoxy-1,2,3,11a-tetrahydro-5H-pyrrolo[2,1-c][1,4]benzodiazepine-5-one]]",> 100000,8910,> 30000,–
"COc1ccc2c(c1)C(=O)N1CCC(OCCCCCCCCOC3CCN4C(=O)c5cc(OC)ccc5N=C[C@@H]34)[C@@H]1C=N2 (stereo partly drawn) [Compound 16f, 1,1′-[(Octane-1,8-diyl)dioxy]bis[(11aS)-7-methoxy-1,2,3,11a-tetrahydro-5H-pyrrolo[2,1-c][1,4]benzodiazepine-5-one]]",1400,19,–,"IC50 [2, 5]: 4.5 nM"
"COc1ccc2c(c1)N=C[C@H]1C(OCCCCCCCOC3CCN4C(=O)c5ccc(OC)cc5N=C[C@@H]34)CCN1C2=O (stereo partly drawn) [Compound 9e, 1,1′-[(Heptane-1,7-diyl)dioxy]bis[(11aS)-8-methoxy-1,2,3,11a-tetrahydro-5H-pyrrolo[2,1-c][1,4]benzodiazepine-5-one]]",20000,2690,> 30000,–
"COc1ccc2c(c1)C(=O)N1CCC(OCCCCCCCCCCCCOC3CCN4C(=O)c5cc(OC)ccc5N=C[C@@H]34)[C@@H]1C=N2 (stereo partly drawn) [Compound 16j, 1,1′-[(Dodecane-1,12-diyl)dioxy]bis[(11aS)-7-methoxy-1,2,3,11a-tetrahydro-5H-pyrrolo[2,1-c][1,4]benzodiazepine-5-one]]",–,150,–,"IC50 [2, 5]: 645 nM"
"C=C1CN2C(=O)c3cc(OC)ccc3N=C[C@H]2C1OCCCCCCCCCCOC1C(=C)CN2C(=O)c3cc(OC)ccc3N=C[C@@H]12 (stereo partly drawn) [Compound 29c, 1,1′-[(Decane-1,10-diyl)dioxy]bis[(11aS)-7-methoxy-2-methylene-1,2,3,11a-tetrahydro-5H-pyrrolo[2,1-c][1,4]benzodiazepine-5-one]]",3900,–,–,"GI50 [1, 6]: 13.2 nM; IC50 [2, 7]: 100 nM"
"C=C1CN2C(=O)c3cc(OC)ccc3N=C[C@H]2C1OCCCCCCCCOC1C(=C)CN2C(=O)c3cc(OC)ccc3N=C[C@@H]12 (stereo partly drawn) [Compound 29a, 1,1′-[(Octane-1,8-diyl)dioxy]bis[(11aS)-7-methoxy-2-methylene-1,2,3,11a-tetrahydro-5H-pyrrolo[2,1-c][1,4]benzodiazepine-5-one]]",–,–,–,"GI50 [1, 6]: 13.8 nM"
"COc1ccc2c(c1)C(=O)N1CCC(OCCCCOC3CCN4C(=O)c5cc(OC)ccc5N=C[C@@H]34)[C@@H]1C=N2 (stereo partly drawn) [Compound 16b, 1,1′-[(Butane-1,4-diyl)dioxy]bis[(11aS)-7-methoxy-1,2,3,11a-tetrahydro-5H-pyrrolo[2,1-c][1,4]benzodiazepine-5-one]]",1000,2510,2500,–
"COc1ccc2c(c1)N=C[C@H]1C(OCCCCCCOC3CCN4C(=O)c5ccc(OC)cc5N=C[C@@H]34)CCN1C2=O (stereo partly drawn) [Compound 9d, 1,1′-[(Hexane-1,6-diyl)dioxy]bis[(11aS)-8-methoxy-1,2,3,11a-tetrahydro-5H-pyrrolo[2,1-c][1,4]benzodiazepine-5-one]]",–,4000,> 30000,–
"COc1ccc2c(c1)N=C[C@H]1C(OCCCCCCCCOC3CCN4C(=O)c5ccc(OC)cc5N=C[C@@H]34)CCN1C2=O (stereo partly drawn) [Compound 9f, 1,1′-[(Octane-1,8-diyl)dioxy]bis[(11aS)-8-methoxy-1,2,3,11a-tetrahydro-5H-pyrrolo[2,1-c][1,4]benzodiazepine-5-one]]",1800,1170,9720,–
"C=C1CN2C(=O)c3cc(OC)ccc3N=C[C@H]2C1OCCCCCCCCCOC1C(=C)CN2C(=O)c3cc(OC)ccc3N=C[C@@H]12 (stereo partly drawn) [Compound 29b, 1,1′-[(Nonane-1,9-diyl)dioxy]bis[(11aS)-7-methoxy-2-methylene-1,2,3,11a-tetrahydro-5H-pyrrolo[2,1-c][1,4]benzodiazepine-5-one]]",1500,–,–,"GI50 [1, 6]: 20.9 nM; IC50 [2, 7]: 33.8 nM"
"COc1ccc2c(c1)C(=O)N1CCC(OCCCCCCCCCCCOC3CCN4C(=O)c5cc(OC)ccc5N=C[C@@H]34)[C@@H]1C=N2 (stereo partly drawn) [Compound 16i, 1,1′-[(Undecane-1,11-diyl)dioxy]bis[(11aS)-7-methoxy-1,2,3,11a-tetrahydro-5H-pyrrolo[2,1-c][1,4]benzodiazepine-5-one]]",–,220,–,"IC50 [2, 5]: 689 nM"
"COc1ccc2c(c1)N=C[C@H]1C(OCCCCOC3CCN4C(=O)c5ccc(OC)cc5N=C[C@@H]34)CCN1C2=O (stereo partly drawn) [Compound 9b, 1,1′-[(Butane-1,4-diyl)dioxy]bis[(11aS)-8-methoxy-1,2,3,11a-tetrahydro-5H-pyrrolo[2,1-c][1,4]benzodiazepine-5-one]]",–,28100,> 30000,–
"COc1ccc2c(c1)C(=O)N1CCC(OCCCCCCOC3CCN4C(=O)c5cc(OC)ccc5N=C[C@@H]34)[C@@H]1C=N2 (stereo partly drawn) [Compound 16d, 1,1′-[(Hexane-1,6-diyl)dioxy]bis[(11aS)-7-methoxy-1,2,3,11a-tetrahydro-5H-pyrrolo[2,1-c][1,4]benzodiazepine-5-one]]",750,310,1000,–
"COc1ccc2c(c1)N=C[C@H]1C(OCCCCCCCCCCCCOC3CCN4C(=O)c5ccc(OC)cc5N=C[C@@H]34)CCN1C2=O (stereo partly drawn) [Compound 9j, 1,1′-[(Dodecane-1,12-diyl)dioxy]bis[(11aS)-8-methoxy-1,2,3,11a-tetrahydro-5H-pyrrolo[2,1-c][1,4]benzodiazepine-5-one]]",> 100000,210,9120,–
